According to patent publication US9249115B2, “N,N1 substituted piperazines having combined antiaggregant, anticoagulant and vasodilatory activity, and method for producing same” (Vertex Closed Joint Stock Company, priority 2011, dated 2016):

Experiments:
[1] = system: ADP-induced thrombocyte aggregation; experiment: ADP-induced thrombocyte aggregation, donor human thrombocyte enriched plasm; format: cell-based; details: ADP inductor; for MA, %: human thrombocyte plasm
Experimental: (§1) The study of antiaggregant and anticoagulant properties of N,N′-substituted piperazines on the sample of donor human blood. The blood was collected by donor ulnar vein punction with dry sharp needle without syringe. The administration of drugs that influence on thrombocyte function was cancelled in 7÷10 days before the experiment.
(§2) In graduated plastic centrifuge tube 1 ml of 3.8% basic trisodium citrate solution with pH=7.4 was placed. The ulnar vein was punctuated, the freely effluent blood was collected up to 10 ml mark, the mixture was instantly stirred to prevent air bubbles appearance. The collected and stabilized blood was split in two 5 ml portions in two tubes.
(§3) To obtain thrombocyte enriched plasm the stabilized blood was spinned at 1000 rpm (150 g) for 8 min at room temperature. The repeated spinning of the blood at 3200 rpm (2300 g) for 20 min at 22° C. yielded thrombocyte depleted plasm.
(§4) The study of anticoagulant activity was done within 2 h after thrombocyte enriched plasm obtaining. The plasm was normalized to achieve thrombocyte concentration of 200-250×10^9/L by addition of thrombocyte-free plasm. The concentration of thrombocytes was measured on SOLAR AR 2110 analyzer.
(§5) Antiaggregant properties of N,N′-substituted piperazines were evaluated by their influence on thrombocyte aggregation in tests with ADP-, collagen- and ristocetin-induced aggregation. To dissolve N,N′-substituted piperazines and to dilute reagents Tris-HCl-buffer with pH=7.4 was used.
(§6) As the general characteristic of thrombocyte aggregation activity the maximum amplitude (MA) of aggregation was taken on. That is the peak value of transmittance coefficient of the sample after aggregation agent introduction expressed in % relative to the transmittance of thrombocyte-free plasm. The response was registered on ascending linear segment of aggregation curve for 16 s.
(§7) The measurements were done using 4-channel CHRONO-LOG 490-4D analyzer (CHRONO-LOG, USA). The temperature in the cell was 37° C., the spinning speed of magnetic stirrer was 1200 rpm.
(§8) In a cuvette 0.5 ml of N,N′-substituted piperazine solution was placed, then 0.4 ml of normalized thrombocyte plasm was added. The mixture was stirred and incubated at 37° C. for 5 min. The cuvette was placed in aggregometer, then 0.05 ml of aggregation inductor solution was added (ADP or collagen or ristocetin). Thrombocyte aggregation was measured for 3 min.
ADP-induced reversible thrombocyte aggregation test utilized CHRONO-PAR ADP reagent (CHRONO-LOG, USA) with 10 mol concentration. Primary (reversible) thrombocyte aggregation was evaluated by the response on addition of ADP threshold dose (ADP concentration is 1 mol) to plasm.

[2] = system: Collagen-induced thrombocyte aggregation; experiment: Collagen-induced thrombocyte aggregation, donor human thrombocyte enriched plasm; format: cell-based; details: collagen inductor; for MA, %: human thrombocyte plasm
Experimental: as §1, §2, §3, §4, §5, §6, §7, §8
In collagen-induced thrombocyte aggregation test CHRONO-PAR COLLAGEN reagent (CHRONO-LOG, USA) was diluted with buffer solution until collagen concentration reached 10 µg/ml.

[3] = system: thrombocyte depleted plasm coagulation; experiment: Activated partial thromboplastin time (APTT), anticoagulant properties; format: biochemical, human
Experimental: as §1, §2, §3
To study anticoagulant properties of N,N′-substituted piperazines activated partial thromboplastin time (APTT) was measured. That is the ability of N,N′-substituted piperazines to increase thrombocyte depleted plasm coagulation time compared to the ability of control sample. The set of reagents for APTT determination (Russian Scientific Research Institute of Hematology and Transfusiology Ministry of Health of Russian Federation by Technical Regulation 9398-214-01966456-99) and COAG-A-MATE® XM coagulometer (ORGANON TEKNIKA, USA) were used.
The solutions of N,N′-substituted piperazines were mixed with thrombocyte depleted plasm at 1:1 ratio, then 0.1 ml of APTT reagent was added, the mixture was incubated in the cuvette for 5 min at 37° C., then 0.1 ml of 0.277% CaCl2 solution was added. The time of coagulation (in seconds) was measured.

[4] = system: Thrombocyte aggregation induced by arachidonic acid; experiment: Thrombocyte aggregation induced by arachidonic acid; format: cell-based, human; details: 4.0 mmol/L, arachidonic acid 0.2 mmol
Experimental: as §1, §2, §3
The study of antiaggregant properties of N,N′-substituted piperazines with arachidonic acid (CHRONO-LOG, USA) as an inductor: to 450 l of thrombocyte plasm 50 l of N,N′-substituted piperazine solution was added, the mixture was incubated in the cuvette of CHRONO-LOG aggregometer for 15 min at 36° C. The concentration of arachidonic acid in the sample was 0.2 mmol, the concentrations of N,N′-substituted piperazines and comparison substance (aspirin) were 4÷5 mmol/L.
It was shown that N,N′-substituted piperazines have pronounced aspirin-like activity by inhibiting thrombocyte aggregation induced by arachidonic acid (table 5).

[5] = Homo sapiens, 0.5 mmol/L, read-out: (MA0-MAx): MA0 * 100%
[6] = Homo sapiens, 1.25 mmol/L, read-out: (MA0-MAx): MA0 * 100%

CCOc1ccc(CN2CCN(C(=N)N)CC2)c(OCC)c1OCC.Cl [Example 5, 4-(2,3,4-triethoxybenzyl)piperazine-1-carboximidamide hydrochloride]
MA, % ([1]; 0.2 mmol/L): 14.9 ± 2.0% | MA, % ([1]; 0.5 mmol/L): 11.5 ± 1.3% | MA, % ([1]; 1.25 mmol/L): 5.3 ± 2.2% | MA, % ([1]; 2.50 mmol/L): 1.9 ± 0.4% | inhibition at 200 µM ([1]; Homo sapiens, 0.2 mmol/L, read-out: (MA0-MAx): MA0 * 100%): 2.7% | inhibition at 500 µM [1, 5]: 24.8% | inhibition at 1250 µM [1, 6]: 65.4% | inhibition at 2500 µM ([1]; Homo sapiens, 2.50 mmol/L, read-out: (MA0-MAx): MA0 * 100%): 87.8% | MA, % ([2]; 0.5 mmol/L): 74.5 ± 4.3% | MA, % ([2]; 1.25 mmol/L): 63.7 ± 2.2% | MA, % ([2]; 2.5 mmol/L): 23.9 ± 0.3% | inhibition at 500 µM [2, 5]: 5.3% | inhibition at 1250 µM [2, 6]: 19.1% | inhibition at 2500 µM ([2]; Homo sapiens, 2.5 mmol/L, read-out: (MA0-MAx): MA0 * 100%): 69.8% | (APTTx-APTT0): APTT0 * 100% ([3]; 1.7 mmol/L): −4.9% | APTT ([3]; 1.7 mmol/L, thrombocyte depleted plasm): 53.7 ± 7.0 s | (APTTx-APTT0): APTT0 * 100% ([3]; 2.5 mmol/L): 22.7% | APTT, sec ([3]; 2.5 mmol/L, thrombocyte depleted plasm): 69.2 ± 5.9- sec | (APTTx-APTT0): APTT0 * 100% ([3]; 4.1 mmol/L): 35.6% | APTT ([3]; 4.1 mmol/L, thrombocyte depleted plasm): 76.5 ± 9.8 s | (APTTx-APTT0): APTT0 * 100% ([3]; 6.3 mmol/L): 75.4% | APTT ([3]; 6.3 mmol/L, thrombocyte depleted plasm): 98.9 ± 9.9 s | APTT ([3]; 8.3 mmol/L, thrombocyte depleted plasm): >150 s | MA [4]: 2 | Max. rate for 16 sec [4]: 1 | inhibition at 4000 µM ([4]; Homo sapiens): 100%
